Measurements as given in patent US8716289B2, “Carbamate derivatives of alkyl-heterocycles, preparation thereof and therapeutic use thereof” (Sanofi, priority 2008, dated 2014).

Legend:
[1] = biological target: T1, enzyme FAAH (Fatty Acid Amide Hydrolase) (Mus musculus, UniProt O08914); assay: FAAH fluorescent enzymatic test, hydrolysis of AAMC (Protocol 2); type: biochemical; conditions: mouse brain homogenate, AAMC 10 μM, preincubation 20 min at 25° C.
T1 construct: The membrane homogenates are prepared extemporaneously by homogenizing the tissues; from tissue; host or cells: mouse brain (minus the cerebellum), membrane homogenate
T1 sequence (O08914 1-579): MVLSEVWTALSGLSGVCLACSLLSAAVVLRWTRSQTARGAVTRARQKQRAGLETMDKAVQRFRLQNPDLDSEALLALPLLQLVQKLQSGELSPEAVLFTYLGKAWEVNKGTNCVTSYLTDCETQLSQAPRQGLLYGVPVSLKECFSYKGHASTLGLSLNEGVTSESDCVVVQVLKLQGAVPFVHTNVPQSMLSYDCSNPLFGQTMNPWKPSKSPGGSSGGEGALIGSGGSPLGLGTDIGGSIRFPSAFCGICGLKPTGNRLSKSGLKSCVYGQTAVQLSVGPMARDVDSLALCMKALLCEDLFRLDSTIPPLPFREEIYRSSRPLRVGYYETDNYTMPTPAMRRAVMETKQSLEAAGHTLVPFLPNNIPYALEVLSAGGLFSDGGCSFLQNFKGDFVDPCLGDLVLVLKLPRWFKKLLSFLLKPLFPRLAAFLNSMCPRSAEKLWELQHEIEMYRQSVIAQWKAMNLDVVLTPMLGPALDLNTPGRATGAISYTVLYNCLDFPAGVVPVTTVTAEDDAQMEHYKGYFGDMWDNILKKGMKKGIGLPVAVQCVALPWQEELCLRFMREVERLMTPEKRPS
Description: Thus, mouse brains (minus the cerebellum) are withdrawn and stored at −80° C. The brain homogenates are prepared extemporaneously by homogenizing the tissues using a Precellys® machine in reaction buffer (10 mM Tris-HCl, pH=8, 150 mM NaCl and 1 mM ethylenediaminetetraacetic acid (EDTA)). The enzymatic reaction is performed in black polystyrene 384-well plates in a final volume of 50 μL. Reaction buffer supplemented with fatty acid-free bovine serum albumin (BSA, 1 mg/ml) is used for the enzymatic reaction, the dilution of the compounds and the dilution of the AAMC. Reaction buffer containing the BSA (25 μL/well), the diluted test compounds at different concentrations (5 μL/well containing 1% DMSO) and the membrane preparation (10 μL/well, i.e. 200 μg of tissue per test) are successively added to the wells. After preincubation for 20 minutes of the compounds with the enzyme at 25° C., the reaction is started by adding 10 μL of substrate per well (AAMC, final concentration of 10 μM). After incubation for 40 minutes, the aminomethyl coumarin (AMC) produced is measured by fluorescent counting (Envision plate reader).

IC50 [1]: 0.7 nM | melting point: 212 to 215 °C
Structure (SMILES): CNC(=O)c1cc(COC(=O)NCCC2CCN(c3ccc(-c4ccc(F)cc4)cc3)CC2)on1 [Compound 29, 3-methylcarbamoylisoxazol-5-ylmethyl 2-[1-(4′-fluorobiphenyl-4-yl)piperidin-4-yl]ethylcarbamate]
